Assay results taken from paper PMC11897524 (Frontiers in Pharmacology, 2025).

Assays:
BRDT = BRDT (Homo sapiens, UniProt Q58F21); assay: Binding affinity to BET and STAT family members
STAT1 = STAT1 (Homo sapiens, UniProt P42224); assay: Binding affinity to BET and STAT family members
STAT6 = STAT6 (Homo sapiens, UniProt P42226); assay: Binding affinity to BET and STAT family members
769-P cells = assay: MTT cytotoxicity assay; assay type: cell-based; conditions: Homo sapiens, cell growth, 48 h treatment, read-out: IC50 (μM) ± SD 769-P
Method: (§1) Human normal renal cortical proximal tubular epithelial cell line HK-2 and human renal carcinoma cell lines CAKI-2, SLR-23, 769-P, A704 and RCC4 were previously purchased from the American Type Culture Collection (ATCC, Manassas, VA, USA) or the European Collection of Cell Cultures (ECACC, Salisbury, United Kingdom). HK2, A704, and RCC4 cells were maintained in high glucose DMEM supplemented with 10% FBS and 1% penicillin/streptomycin. SLR-23 and […] cells were cultured in RPMI-1640 medium with 10% FBS and 1% penicillin/streptomycin. CAKI-2 cells were maintained in McCoy’s 5A medium supplemented with 10% FBS and 1% penicillin/streptomycin. All the cell lines were cultured at 37°C in a humidified atmosphere of 5% CO2 and 95% air.
(§2) The effect of hit compounds on cytotoxicity was determined as previously reported ([Ding et al., 2020]). In brief, cells treated with the tested compounds were added with MTT reagent to form formazan crystals, and then the optical density (OD) values at 570 nm were determined after the crystals were dissolved in DMSO. […] Next, the values of IC50 of the selected compounds against more RCC cell lines were determined. The 5 × 10^3 cells in 100 μL culture medium were injected into each well of a 96-well plate and cultured overnight. Add different concentrations of compounds and incubate for 48 h. Then 100 μL of MTT (0.5 mg/mL) solution was added to the 96-well plate and maintained at 37°C for 4 h. Finally, 200 μL of DMSO was added and shaken for 10 min. The OD values at 570 nm were determined by a Synergy 4 microplate reader.

A704 cells = assay: MTT cytotoxicity assay; assay type: cell-based; conditions: Homo sapiens, cell growth, 48 h treatment, read-out: IC50 (μM) ± SD A704
Method: as §1, §2

[1] = test system: HK-2 normal renal cortical proximal tubular epithelial cells; assay: MTT cytotoxicity assay; assay type: cell-based; conditions: Homo sapiens, Epithelial cell, normal cell line, 48 h treatment, read-out: IC50 (μM) ± SD HK-2
Method: as §1, §2

RCC4 cells = assay: MTT cytotoxicity assay; assay type: cell-based; conditions: Homo sapiens, cell growth, 48 h treatment, read-out: IC50 (μM) ± SD RCC4
Method: as §1, §2

SLR-23 cells = assay: MTT cytotoxicity assay; assay type: cell-based; conditions: Homo sapiens, cell growth, 48 h treatment, read-out: IC50 (μM) ± SD SLR-23
Method: as §1, §2

shBRD4-CAKI-2 cells = assay: MTT assay on shRNA-transfected CAKI-2 cells; assay type: cell-based; conditions: Homo sapiens, CAKI-2 stably expressing BRD4 shRNA, 48 h, read-out: IC50 (μM) ± SD shBRD4-CAKI-2
Method: as §2
(§3) ^aIC50 (μM) is the concentration of compound needed to reduce cell growth by 50% following 48 h cell treatment with BST-4. shControl-CAKI-2: CAKI-2 cells stably expressing Control shRNA; shBRD4-CAKI-2 cells: CAKI-2 cells stably expressing BRD4 shRNA; shSTAT3-CAKI-2 cells: CAKI-2 cells stably expressing STAT3 shRNA; shBRD4/STAT3-CAKI-2 cells: CAKI-2 cells stably expressing BRD4/STAT3 shRNA. Each experiment was performed at least three times. Data are presented as the mean ± SD.

[2] = test system: shBRD4/STAT3-CAKI-2 cells; assay: MTT assay on shRNA-transfected CAKI-2 cells; assay type: cell-based; conditions: Homo sapiens, CAKI-2 stably expressing BRD4/STAT3 shRNA, 48 h, read-out: IC50 (μM) ± SD shBRD4/STAT3-CAKI-2
Method: as §2, §3

shControl-CAKI-2 cells = assay: MTT assay on shRNA-transfected CAKI-2 cells; assay type: cell-based; conditions: Homo sapiens, CAKI-2 stably expressing Control shRNA, 48 h, read-out: IC50 (μM) ± SD shControl-CAKI-2
Method: as §2, §3

shSTAT3-CAKI-2 cells = assay: MTT assay on shRNA-transfected CAKI-2 cells; assay type: cell-based; conditions: Homo sapiens, CAKI-2 stably expressing STAT3 shRNA, 48 h, read-out: IC50 (μM) ± SD shSTAT3-CAKI-2
Method: as §2, §3

c-myc mRNA and Ki67 mRNA = assay: RT-qPCR on xenograft tumor tissues; assay type: in vivo, BALB/c nude mice; conditions: xenograft tumor tissue
Method: This method was performed as previously reported. Briefly, the CAKI-2 cells were seeded into 6-well plates and cultured overnight, and treated with different concentrations of BST-4 for 24 h. RNA was extracted from cells and tissues using Trizol reagent and reverse transcribed using PrimeScriptRTase. cDNA was used for RT-qPCR SYBR Green assays (Takara). The relative levels of c-myc mRNA were calculated as [(c-myc mRNA in the treatment group)/(β-actin mRNA in the treatment group)]/[(c-myc mRNA in the control group)/(β-actin mRNA in the control group).
To further investigate the in vivo effects of BST-4, 6–8 weeks male BALB/c nude mice were obtained by Changzhou Cavens Experimental Animal Co., Ltd. (Changzhou, China). The mice were acclimatized to the laboratory environment for a week before the experiment. The housing conditions were maintained at a temperature of 22°C ± 2°C, a relative humidity of 50%–60%, and a 12-h light/dark cycle. 0.1 mL of CAKI-2cell suspension (1 × 10⁶ cells) was subcutaneously injected into the right flank of each mouse. […] The vehicle group was injected with a vehicle solution consisting of 5% DMSO and PBS. The tumor volume of mice was measured every 2 days and calculated according to the formula: (c × c × d)/2, where c and d represent the minimum diameter and maximum diameter, respectively. […]

BRD4 = BRD4 (Homo sapiens, UniProt O60885); assay: Microscale thermophoresis (MST) assay; assay type: binding; design: purchased Abcam
Method: The MST experiments were performed using the Monolith NT.115 instrument. BRD4 and STAT3 proteins were labeled with the Lys labeling kit at the final concentration of 100 nM. The compounds, previously suspended in 100% DMSO, were diluted in a buffer containing 20 mM Tris·HCl (pH 7.5), 100 mM NaCl, and 3 mM DTT, achieving a final DMSO concentration of 5%. The compounds were gradient-diluted in 1:1 dilution and starting from 100 μM. The samples were loaded into MST-standard glass capillaries. All the measurements were performed in triplicate using automatically assigned 50% MST power and 20% LED power. Data analysis was performed using GraphPad Prism 7.0 software.

STAT6, sequence (P42226 whole entry): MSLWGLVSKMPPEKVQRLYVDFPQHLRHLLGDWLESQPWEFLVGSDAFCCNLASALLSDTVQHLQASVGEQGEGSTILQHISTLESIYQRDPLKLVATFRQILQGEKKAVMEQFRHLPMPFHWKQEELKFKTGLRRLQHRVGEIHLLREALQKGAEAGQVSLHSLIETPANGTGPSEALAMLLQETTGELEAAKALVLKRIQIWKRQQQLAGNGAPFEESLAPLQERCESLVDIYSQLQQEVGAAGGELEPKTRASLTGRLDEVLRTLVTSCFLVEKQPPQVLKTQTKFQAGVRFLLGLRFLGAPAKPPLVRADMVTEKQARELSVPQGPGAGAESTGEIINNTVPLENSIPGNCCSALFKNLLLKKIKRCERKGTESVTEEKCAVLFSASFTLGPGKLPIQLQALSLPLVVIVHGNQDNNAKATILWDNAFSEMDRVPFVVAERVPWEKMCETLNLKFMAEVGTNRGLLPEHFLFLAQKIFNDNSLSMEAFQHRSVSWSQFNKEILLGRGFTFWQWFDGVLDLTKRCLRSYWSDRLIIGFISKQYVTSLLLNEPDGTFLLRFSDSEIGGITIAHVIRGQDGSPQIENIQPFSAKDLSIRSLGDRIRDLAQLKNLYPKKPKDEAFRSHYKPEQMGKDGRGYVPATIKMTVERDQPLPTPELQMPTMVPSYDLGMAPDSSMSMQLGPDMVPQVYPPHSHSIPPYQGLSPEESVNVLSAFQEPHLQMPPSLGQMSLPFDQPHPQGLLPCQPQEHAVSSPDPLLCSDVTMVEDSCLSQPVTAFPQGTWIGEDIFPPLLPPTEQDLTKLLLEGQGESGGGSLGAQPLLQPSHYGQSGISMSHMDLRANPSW
STAT1, sequence (P42224 whole entry): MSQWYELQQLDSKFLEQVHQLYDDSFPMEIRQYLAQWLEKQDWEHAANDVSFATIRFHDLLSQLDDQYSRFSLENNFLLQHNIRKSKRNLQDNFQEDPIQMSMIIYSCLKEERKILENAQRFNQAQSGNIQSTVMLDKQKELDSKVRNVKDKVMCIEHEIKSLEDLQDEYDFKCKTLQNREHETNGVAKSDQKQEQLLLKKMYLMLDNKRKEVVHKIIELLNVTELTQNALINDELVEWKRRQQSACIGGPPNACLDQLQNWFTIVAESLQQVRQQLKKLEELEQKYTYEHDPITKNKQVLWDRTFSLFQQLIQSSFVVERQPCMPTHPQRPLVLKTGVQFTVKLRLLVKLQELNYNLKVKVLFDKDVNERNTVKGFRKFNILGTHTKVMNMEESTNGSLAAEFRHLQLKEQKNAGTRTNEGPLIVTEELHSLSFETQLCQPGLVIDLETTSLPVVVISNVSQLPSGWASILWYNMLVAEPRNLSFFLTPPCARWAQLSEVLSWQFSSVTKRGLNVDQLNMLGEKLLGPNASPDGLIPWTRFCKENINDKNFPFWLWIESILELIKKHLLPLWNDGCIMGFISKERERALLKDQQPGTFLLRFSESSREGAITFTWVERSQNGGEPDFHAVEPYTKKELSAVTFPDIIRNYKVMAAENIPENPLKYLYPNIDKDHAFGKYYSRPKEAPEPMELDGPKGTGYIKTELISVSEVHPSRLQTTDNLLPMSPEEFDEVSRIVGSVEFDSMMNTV

In the case of `CCS(=O)(=O)Cc1cnc(Oc2c(F)cc(F)cc2OCCCCOc2ccc(/C=C/c3cc(OC)cc(OC)c3)cc2)c(-c2cc(C)c3c(=O)[nH]ccn23)c1` [BST-4], the Kd (BRDT) is reported as greater than 10000 nM, the Kd (STAT1) is reported as greater than 10000 nM and the Kd (STAT6) is reported as greater than 10000 nM. For the same molecule, the IC50 (769-P cells) was 1.68 ± 0.32 µM, the IC50 (A704 cells) was 1.07 ± 0.18 µM and the IC50 [1] was greater than 10 µM. For the same molecule, the IC50 (RCC4 cells) was 2.19 ± 0.64 µM, the IC50 (SLR-23 cells) was 1.52 ± 0.43 µM and the IC50 (shBRD4-CAKI-2 cells) was 5.09 ± 0.27 µM. For the same molecule, the IC50 [2] was greater than 10 µM, the IC50 (shControl-CAKI-2 cells) was 0.76 ± 0.05 µM and the IC50 (shSTAT3-CAKI-2 cells) was 3.48 ± 0.21 µM. The “Ki67 mRNA expression level in tumor tissues in vivo” value (c-myc mRNA and Ki67 mRNA) was “downregulated”, the “c-myc mRNA expression level in tumor tissues in vivo” value (c-myc mRNA and Ki67 mRNA) was “downregulated” and the “BRD4 binding affinity relative to RVX-208” value (BRD4; Kd ratio vs RVX-208, MST) was 17 fold. The Kd (BRD4; MST) was 1.46 ± 0.07 nM.
